Laboratory results: patent US20170226072A1, “1,4-Disubstituted Piperidines, 1,4-Disubstituted Piperazines, 1,4-Disubstituted Diazepines, and 1,3-Disubstituted Pyrrolidine Compounds” (University of Kentucky Research Foundation, priority 2013, published 2017)
Several values for one entry are separate records, joined by “and”; a condition that tells them apart may be missing. Equal entries are not always repeated.

What was measured:
[1] = molecular target: T1, VMAT2 (Rattus norvegicus, UniProt Q01827); assay: [3H]Dihydrotetrabenazine ([3H]DTBZ) binding assay, vesicular preparation; details: rat brain synaptic vesicles, 3 nM [3H]DTBZ; read-out: Inhibition of [3H]DTBZ binding (Ki) VMAT2
T1 construct: conducted using isolated synaptic vesicle preparations; from tissue; host or cells: rat striatum, isolated synaptic vesicles
Description: [^3H]Dihydrotetrabenazine ([^3H]DTBZ) Binding Assay, Vesicular Preparation
The resulting supernatant (S1) was then centrifuged at 22,000 g for 10 min at 4° C. The synaptosomal pellets (P2) were homogenized in 18 mL of ice-cold Milli-Q water and exposed for 5 min for lysing synaptosomes. Osmolarity was restored by addition of 2 mL of 25 mM HEPES with 100 mM dipotassium tartrate (pH 7.5). Samples were centrifuged at 20,000 g for 20 min at 4° C. to remove lysed synaptosomal membranes. MgSO4 (1 mM) was added to the supernatant (S3), and was centrifuged at 100,000 g for 45 min at 4° C. […] Aliquot parts (100 μL) of suspension of vesicle membrane protein were incubated in assay buffer (25 mM HEPES, 100 mM dipotassium tartrate, 5 mM MgSO4, 0.1 mM EDTA and 0.05 mM EGTA, pH 7.5, at 25° C.) in the presence of 3 nM [^3H]DTBZ and at least 7 concentrations (1 nM-1 mM) of compound for 1 hr at room temperature. Nonspecific binding was determined in the presence of 20 μM tetrabenazine, a standard compound. Assays were performed in duplicate using a 96-well plate format. Reactions were terminated by filtration of samples on a Unifilter-96 GF/B filter plates (presoaked in 0.5% polyethylenimine), using a FilterMate harvester (Packard BioScience Co., Meriden, Conn.).
After washing 5 times with 350 μL of the ice-cold wash buffer (25 mM HEPES, 100 mM dipotassium tartrate, 5 mM MgSO4 and 10 mM NaCl, pH 7.5), filter plates were dried, sealed and each well filled with 40 μL Packard's MicroScint 20 cocktail. Bound [^3H]DTBZ was measured using a Packard TopCount NXT scintillation counter with a Packard Windows NT based operating system.

[2] = molecular target: T1, VMAT2; assay: [3H]Dopamine ([3H]DA) uptake assay, vesicular preparation; format: biochemical
Description: [^3H]Dopamine ([^3H]DA) Uptake Assay, Vesicular Preparation
Homogenates were centrifuged (2,000 g for 10 min at 4° C.), and then the supernatants were centrifuged (10,000 g for 30 min at 4° C.). Pellets were resuspended in 2 ml of 0.32 M sucrose solution and subjected to osmotic shock by adding 7 ml of ice-cold MilliQ water to the preparation. After 1 min, osmolarity was restored by adding 900 μl of 0.25 M HEPES buffer and 900 μl of 1.0 M potassium tartrate solution. Samples were centrifuged (20,000 g for 20 min at 4° C.), and the supernatants were centrifuged (55,000 g for 1 hr at 4° C.), followed by addition of 100 μl of 10 mM MgSO4, 100 μl of 0.25 M HEPES and 100 μl of 1.0 M potassium tartrate solution prior to the final centrifugation (100,000 g for 45 min at 4° C.). Final pellets were resuspended in 2.4 ml of assay buffer (25 mM HEPES, 100 mM potassium tartrate, 50 μM EGTA, 100 μM EDTA, 1.7 mM ascorbic acid, 2 mM ATP-Mg^2+, pH 7.4). Aliquots of the vesicular suspension (100 μl) were added to tubes containing assay buffer, various concentrations of compound (0.1 nM-10 mM) and 0.1 μM [^3H]DA in a final volume of 500 and incubated at 37° C. for 8 min. […] Reactions were terminated by filtration, and radioactivity retained by the filters was determined by liquid scintillation spectrometry (Tri-Carb 2100TR liquid scintillation analyzer; PerkinElmer Life and Analytical Sciences, Boston, Mass.).

[3] = molecular target: T2, hERG channel (Homo sapiens, UniProt Q12809); assay: [3H]Dofetilide binding assay, HEK-293 cell membrane preparation; details: HEK-293 cell membranes expressing hERG, 5 nM [3H]dofetilide; read-out: hERG [3H]Dofetilide Binding Inhibition Mean ± SEM (IC50)
T2 construct: expressed in transfected cells
Description: [^3H]Dofetilide Binding Assay, HEK-293 Cell Membrane Preparation
[^3H]Dofetilide binding assays were conducted using commercially available HEK-293 cell membranes which stably express the hERG channel. Membranes were suspended in assay buffer (50 mM Tris, 10 mM KCl, 1 mM MgCl2, pH 7.4) prior to the experiment. Assays were performed in duplicate in a total volume of 250 μL. Aliquots of the HEK-293 cell membrane suspension which contained 5 μg membrane protein were added to tubes containing assay buffer, 5 nM [^3H]dofetilide and a range of concentrations of analog (10 nM-100 μM). Nonspecific binding was determined in the presence of amitriptyline (1 mM). Samples were incubated for 1 hr. at 24° C., followed by rapid filtration. Radioactivity retained by the filters was determined by liquid scintillation spectrometry as described above for the [^3H]DA uptake assay. The affinity for the [^3H]dofetilide binding site on the hERG channel expressed in the HEK-293 cellular membrane was determined from the analog concentration response curves.

[4] = rat striatal synaptic vesicles, 0.1 μM [3H]DA, read-out: [3H]DA Uptake (Ki) VMAT2

T1 sequence (Q01827 whole entry): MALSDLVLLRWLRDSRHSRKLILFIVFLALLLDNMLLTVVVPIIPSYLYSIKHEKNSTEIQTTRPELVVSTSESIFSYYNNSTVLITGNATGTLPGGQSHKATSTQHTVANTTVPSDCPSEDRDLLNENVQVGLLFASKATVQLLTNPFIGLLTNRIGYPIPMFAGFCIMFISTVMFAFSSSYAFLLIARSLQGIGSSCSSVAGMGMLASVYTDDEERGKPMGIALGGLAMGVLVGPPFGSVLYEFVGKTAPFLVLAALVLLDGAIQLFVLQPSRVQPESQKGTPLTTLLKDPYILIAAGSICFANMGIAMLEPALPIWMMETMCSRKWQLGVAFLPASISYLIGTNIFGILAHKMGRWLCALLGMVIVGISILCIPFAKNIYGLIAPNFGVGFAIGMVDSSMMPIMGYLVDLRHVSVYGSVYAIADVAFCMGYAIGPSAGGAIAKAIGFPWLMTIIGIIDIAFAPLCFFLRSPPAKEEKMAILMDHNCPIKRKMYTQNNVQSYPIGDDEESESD
T2 sequence (Q12809 whole entry): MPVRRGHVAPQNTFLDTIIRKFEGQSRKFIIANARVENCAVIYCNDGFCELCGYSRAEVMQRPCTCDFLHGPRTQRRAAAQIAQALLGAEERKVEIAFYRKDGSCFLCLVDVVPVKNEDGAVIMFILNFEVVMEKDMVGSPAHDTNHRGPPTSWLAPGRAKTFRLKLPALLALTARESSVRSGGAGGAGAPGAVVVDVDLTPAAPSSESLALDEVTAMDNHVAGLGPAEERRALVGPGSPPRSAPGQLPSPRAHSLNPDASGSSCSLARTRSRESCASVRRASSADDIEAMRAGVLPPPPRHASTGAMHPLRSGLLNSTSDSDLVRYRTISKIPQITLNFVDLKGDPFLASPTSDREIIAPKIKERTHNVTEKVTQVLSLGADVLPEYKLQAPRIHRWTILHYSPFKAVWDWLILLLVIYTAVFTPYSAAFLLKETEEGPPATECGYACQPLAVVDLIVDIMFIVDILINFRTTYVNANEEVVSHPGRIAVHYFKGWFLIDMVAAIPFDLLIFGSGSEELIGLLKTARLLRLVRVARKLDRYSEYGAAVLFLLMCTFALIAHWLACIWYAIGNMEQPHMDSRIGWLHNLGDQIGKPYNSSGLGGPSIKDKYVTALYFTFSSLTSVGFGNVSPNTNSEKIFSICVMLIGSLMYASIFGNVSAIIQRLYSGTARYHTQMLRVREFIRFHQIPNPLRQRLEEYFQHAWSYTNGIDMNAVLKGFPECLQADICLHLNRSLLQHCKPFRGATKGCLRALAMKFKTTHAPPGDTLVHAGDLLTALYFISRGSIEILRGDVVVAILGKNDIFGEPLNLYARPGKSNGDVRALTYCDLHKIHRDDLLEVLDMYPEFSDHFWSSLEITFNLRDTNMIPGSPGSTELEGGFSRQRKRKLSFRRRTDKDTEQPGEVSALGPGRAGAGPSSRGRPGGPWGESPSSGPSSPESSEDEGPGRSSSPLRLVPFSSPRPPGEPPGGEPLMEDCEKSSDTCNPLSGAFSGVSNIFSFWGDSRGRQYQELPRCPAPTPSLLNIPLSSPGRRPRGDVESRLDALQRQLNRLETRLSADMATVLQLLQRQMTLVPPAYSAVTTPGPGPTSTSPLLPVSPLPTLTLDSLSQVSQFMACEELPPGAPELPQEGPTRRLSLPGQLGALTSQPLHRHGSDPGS

Structure (SMILES)	Ki [1]	Ki [2, 4]	IC50 [3]	Ki ([2]; synaptic vesicle preparations, summary of Table 1, read-out: inhibition of [3H]DA uptake, Ki)
COc1ccccc1CCN1CCC(CCc2ccccc2)CC1 [Compound 1, 1-(2-methoxyphenethyl)-4-phenethylpiperidine]	255 ± 26 nM	30 ± 2 nM	534 ± 142 nM	–
COc1ccc(CCN2CCC(CCc3ccccc3)CC2)cc1OC [Compound 3]	2800 ± 110 nM	56 ± 9 nM	402 ± 72.7 nM	–
COc1ccc(CCN2CCC(CCc3ccccc3)CC2)cc1 [Compound 4]	1620 ± 190 nM	46 ± 3.7 nM	622 ± 215 nM	–
COc1ccccc1CCN1CCC(Cc2ccccc2)CC1 [Compound 5]	2760 ± 310 nM	130 ± 15 nM	–	–
COc1cccc(CCN2CCC(Cc3ccccc3)CC2)c1 [Compound 6]	1530 ± 100 nM	77 ± 9.8 nM	442 ± 221 nM	–
COc1ccc(CCN2CCC(Cc3ccccc3)CC2)cc1OC [Compound 7]	2990 ± 170 nM	240 ± 34 nM	–	–
COc1ccc(CCN2CCC(Cc3ccccc3)CC2)cc1 [Compound 8]	1940 ± 430 nM	180 ± 11 nM	–	–
Clc1ccccc1CCN1CCC(CCc2ccccc2)CC1 [Compound 10]	380 ± 5.8 nM	47 ± 6.3 nM	666 ± 26.5 nM	–
Fc1ccc(CCN2CCC(CCc3ccccc3)CC2)cc1 [Compound 11]	1820 ± 79 nM	32 ± 3.8 nM	353 ± 36 nM	–
COc1cccc(CCC2CCN(CCc3ccccc3)CC2)c1 [Compound 14]	320 ± 15 nM	56 ± 8.6 nM	631 ± 88.8 nM	–
COc1cccc(CCC2CCN(CCc3ccccc3OC)CC2)c1 [Compound 15]	320 ± 55 nM	40 ± 7.5 nM	790 ± 64.1 nM	–
COc1cccc(CCC2CCN(CCc3cccc(OC)c3)CC2)c1 [Compound 16]	230 ± 19 nM	85 ± 10 nM	564 ± 131 nM	–
COc1ccc(CCN2CCC(CCc3cccc(OC)c3)CC2)cc1 [Compound 17]	450 ± 130 nM	130 ± 23 nM	600 ± 87.8 nM	–
COc1cccc(CCC2CCN(CCc3ccccc3Cl)CC2)c1 [Compound 18]	460 ± 98 nM	420 ± 49 nM	–	–
COc1cccc(CCC2CCN(CCc3ccc(F)cc3)CC2)c1 [Compound 19]	960 ± 47 nM	69 ± 4 nM	409 ± 42.9 nM	–
COc1ccc(CCC2CCN(CCc3ccccc3)CC2)cc1 [Compound 20]	510 ± 87 nM	110 ± 7 nM	–	–
COc1ccc(CCC2CCN(CCc3ccccc3OC)CC2)cc1 [Compound 21]	420 ± 19 nM	83 ± 9 nM	323 ± 96.4 nM	–
COc1ccc(CCC2CCN(CCc3cccc(OC)c3)CC2)cc1 [Compound 22]	230 ± 47 nM	75 ± 4 nM	479 ± 228 nM	–
COc1ccc(CCC2CCN(CCc3ccc(OC)cc3)CC2)cc1 [Compound 23]	2470 ± 270 nM	160 ± 12 nM	–	–
COc1ccc(CCC2CCN(CCc3ccc(F)cc3)CC2)cc1 [Compound 25]	470 ± 67 nM	60 ± 5 nM	1420 ± 384 nM	–
COc1cccc(CCN2CCC(CCc3ccccc3OC)CC2)c1 [Compound 26, 1-(3-methoxyphenethyl)-4-(2-methoxyphenethyl)piperidine]	150 to 190 nM and 150 nM	13 ± 1.5 nM	607 ± 25.5 nM	9 to 20 nM
COc1ccc(CCN2CCC(CCc3ccccc3OC)CC2)cc1 [Compound 27]	500 ± 100 nM	43 ± 2.8 nM	479 ± 109 nM	–
Fc1ccc(CCC2CCN(CCc3ccccc3)CC2)c(F)c1 [Compound 30]	530 ± 110 nM	53 ± 5.5 nM	552 ± 99.1 nM	–
COc1ccccc1CCN1CCC(CCc2ccc(F)cc2F)CC1 [Compound 31]	350 ± 48 nM	41 ± 12 nM	317 ± 24.8 nM	–
COc1cccc(CCN2CCC(CCc3ccc(F)cc3F)CC2)c1 [Compound 32]	270 ± 15 nM	29 ± 5.5 nM	327 ± 35.3 nM	–

Structure (SMILES)	Ki [1]	Ki [2, 4]	IC50 [3]	Ki ([2]; synaptic vesicle preparations, summary of Table 1, read-out: inhibition of [3H]DA uptake, Ki)
COc1ccc(CCN2CCC(CCc3ccc(F)cc3F)CC2)cc1 [Compound 33]	1300 ± 170 nM	70 ± 5.1 nM	1070 ± 152 nM	–
Fc1ccc(CCC2CCN(CCc3ccccc3Cl)CC2)c(F)c1 [Compound 34]	240 ± 38 nM	110 ± 19 nM	–	–
Fc1ccc(CCN2CCC(CCc3ccc(F)cc3F)CC2)cc1 [Compound 35]	1450 ± 240 nM	43 ± 14 nM	201 ± 32.7 nM	–
COc1ccc(CCC2CCN(CCc3ccccc3)CC2)c(F)c1 [Compound 36]	290 ± 64 nM	120 ± 8.5 nM	–	–
COc1ccc(CCC2CCN(CCc3ccccc3OC)CC2)c(F)c1 [Compound 37]	330 ± 18 nM	76 ± 10 nM	2870 ± 760 nM	–
COc1ccc(CCN2CCC(CCc3ccc(OC)cc3F)CC2)cc1 [Compound 39]	1610 ± 78 nM	44 ± 3.3 nM	299 ± 45.9 nM	–
COc1ccc(CCC2CCN(CCc3ccccc3Cl)CC2)c(F)c1 [Compound 40]	230 ± 15 nM	67 ± 21 nM	1410 ± 166 nM	–
Fc1cc(F)cc(CCC2CCN(CCc3ccccc3)CC2)c1 [Compound 42]	1100 ± 87 nM	51 ± 3.5 nM	258 nM	–
COc1ccccc1CCN1CCC(CCc2cc(F)cc(F)c2)CC1 [Compound 43]	410 ± 38 nM	34 ± 3.9 nM	427 ± 134 nM	–
COc1ccc(CCN2CCC(CCc3cc(F)cc(F)c3)CC2)cc1 [Compound 45]	2030 ± 130 nM	120 ± 28 nM	–	–
Fc1cc(F)cc(CCC2CCN(CCc3ccccc3Cl)CC2)c1 [Compound 46]	660 ± 58 nM	180 ± 68 nM	–	–
Fc1ccc(CCN2CCC(CCc3cc(F)cc(F)c3)CC2)cc1 [Compound 47]	1430 ± 280 nM	68 ± 16 nM	440 ± 41.2 nM	–
c1ccc(CCC2CCN(Cc3ccccc3)CC2)cc1 [Compound 48]	21700 ± 2080 nM	190 ± 63 nM	–	–
COc1ccccc1CN1CCC(CCc2ccccc2)CC1 [Compound 49]	9360 ± 1320 nM	70 ± 7.5 nM	568 ± 122 nM	–
COc1cccc(CN2CCC(CCc3ccccc3)CC2)c1 [Compound 50]	12700 ± 4280 nM	190 ± 20 nM	–	–
COc1ccc(CN2CCC(CCc3ccccc3)CC2)cc1 [Compound 51]	6230 ± 560 nM	250 ± 27 nM	–	–
Clc1ccccc1CN1CCC(CCc2ccccc2)CC1 [Compound 52]	44500 ± 17800 nM	270 ± 42 nM	–	–
Fc1ccc(CN2CCC(CCc3ccccc3)CC2)cc1 [Compound 53]	10100 ± 580 nM	210 ± 12 nM	–	–
COc1ccc(CCN2CCN(CCc3ccc(OC)cc3)CC2)cc1 [Compound 57]	6630 ± 840 nM	410 ± 5 nM	–	–
c1ccc(CCN2CCCN(CCc3ccccc3)CC2)cc1 [Compound 65]	3170 ± 550 nM	190 ± 17 nM	–	–
COc1ccccc1CCN1CCCN(CCc2ccccc2OC)CC1 [Compound 66]	2020 ± 110 nM	190 ± 26 nM	–	–
COc1cccc(CCN2CCCN(CCc3cccc(OC)c3)CC2)c1 [Compound 67]	2240 ± 530 nM	100 ± 10 nM	1120 ± 85.7 nM	–
COc1ccc(CCN2CCCN(CCc3ccc(OC)cc3)CC2)cc1 [Compound 68]	2880 ± 250 nM	250 ± 15 nM	–	–
Clc1ccccc1CCN1CCCN(CCc2ccccc2Cl)CC1 [Compound 69]	930 ± 21 nM	170 ± 25 nM	–	–
Fc1ccc(CCN2CCCN(CCc3ccc(F)cc3)CC2)cc1 [Compound 70]	5050 ± 770 nM	85 ± 5.2 nM	57 ± 2.7 nM	–
